Measured values from ChEMBL document CHEMBL1154700, “3D-QSAR studies on unsaturated 4-azasteroids as human 5alpha-reductase inhibitors: a self organizing molecular field analysis approach” (Eur J Med Chem, 2010).

Organism: Homo sapiens
Experiment: Inhibition of human 5 alpha reductase assessed as -log of ratio of IC50 of drug to the IC50 of reference compound
CCC(C)C(=O)[C@H]1CC[C@H]2[C@@H]3CC[C@H]4NC(=O)C=C[C@]4(C)[C@H]3CC[C@]12C (stereo partly specified) showed a -log(RatioIC50) of -0.881. CCOC(=O)/C=C1\CC[C@H]2[C@@H]3CC=C4N(C)C(=O)CC[C@]4(C)[C@H]3CC[C@]12C was tested, and the -log(RatioIC50) was -2. In the case of CC(C)N(C(=O)[C@H]1CC[C@H]2[C@@H]3CC=C4N(C)C(=O)CC[C@]4(C)[C@H]3CC[C@]12C)C(C)C, the -log(RatioIC50) is reported as -0.204. CCC(C)C(=O)[C@H]1CC[C@H]2[C@@H]3CC[C@H]4N(C)C(=O)C=C[C@]4(C)[C@H]3CC[C@]12C (stereo partly specified) showed a -log(RatioIC50) of -1.7. With CNC(=O)[C@H]1CC[C@H]2[C@@H]3CC=C4N(C)C(=O)CC[C@]4(C)[C@H]3CC[C@]12C the -log(RatioIC50) was -1.57. C[C@]12C=CC(=O)N[C@@H]1CC[C@@H]1[C@@H]2CC[C@]2(C)[C@@H](C(=O)Sc3ccccn3)CC[C@@H]12 showed a -log(RatioIC50) of 0. Work on CC(C)N(C(=O)[C@H]1CC[C@H]2[C@@H]3CC[C@H]4NC(=O)C=C[C@]4(C)[C@H]3CC[C@]12C)C(C)C yielded a -log(RatioIC50) of -0.204. Work on COC(=O)[C@@H](C)[C@H]1CC[C@H]2[C@@H]3CC[C@H]4N(C)C(=O)C=C[C@]4(C)[C@H]3CC[C@]12C yielded a -log(RatioIC50) of -2.18. Compound CCN(CC)C(=O)[C@H]1CC[C@H]2[C@@H]3CC=C4N(C)C(=O)CC[C@]4(C)[C@H]3CC[C@]12C has a -log(RatioIC50) of -0.653. Compound CC(C)N(C(=O)[C@H]1CC[C@H]2[C@@H]3CC=C4NC(=O)CC[C@]4(C)[C@H]3CC[C@]12C)C(C)C has a -log(RatioIC50) of -0.602. For CCN(CC)C(=O)/C=C/[C@H]1CC[C@H]2[C@@H]3CC[C@H]4N(C)C(=O)CC[C@]4(C)[C@H]3CC[C@]12C, the -log(RatioIC50) was -0.301. For CC(C)(C)CC(C)(C)NC(=O)[C@H]1CC[C@H]2[C@@H]3CC[C@H]4NC(=O)C=C[C@]4(C)[C@H]3CC[C@]12C, the -log(RatioIC50) was -0.079. CN1C(=O)C=C[C@]2(C)[C@H]3CC[C@]4(C)[C@@H](C(=O)NC(C)(C)C)CC[C@H]4[C@@H]3CC[C@@H]12 showed a -log(RatioIC50) of -0.778. For COC(=O)[C@H]1CC[C@H]2[C@@H]3CC[C@H]4NC(=O)C=C[C@]4(C)[C@H]3CC[C@]12C, the -log(RatioIC50) was -1.56. C[C@]12C=CC(=O)N[C@@H]1CC[C@@H]1[C@@H]2CC[C@]2(C)[C@@H](C(=O)c3ccc[nH]3)CC[C@@H]12 gave a -log(RatioIC50) of -1. CCN(CC)C(=O)[C@H]1CC[C@H]2[C@@H]3CC[C@H]4N(C)C(=O)C=C[C@]4(C)[C@H]3CC[C@]12C gave a -log(RatioIC50) of -1.34. CN1C(=O)C=C[C@]2(C)[C@H]3CC[C@@]4(C)[C@@H](CC[C@@]45CCCO5)[C@@H]3CC[C@@H]12 gave a -log(RatioIC50) of -3.1. CCN(CC)C(=O)[C@H]1CC[C@H]2[C@@H]3CC[C@H]4NC(=O)C=C[C@]4(C)[C@H]3CC[C@]12C showed a -log(RatioIC50) of -0.785. CCNC(=O)[C@H]1CC[C@H]2[C@@H]3CC[C@H]4N(C)C(=O)C=C[C@]4(C)[C@H]3CC[C@]12C showed a -log(RatioIC50) of -2.18. CC(C)(C)NC(=O)[C@H]1CC[C@H]2[C@@H]3CC[C@H]4NC(=O)C=C[C@]4(C)[C@H]3CC[C@]12C gave a -log(RatioIC50) of 0.26. With CN1C(=O)C=C[C@]2(C)[C@H]3CC[C@]4(C)[C@@H](C(=O)NC(C)(C)CC(C)(C)C)CC[C@H]4[C@@H]3CC[C@@H]12 the -log(RatioIC50) was -0.477. CC(C)N(C(=O)[C@H]1CC[C@H]2[C@@H]3CC=C4N(C)C(=O)C=C[C@]4(C)[C@H]3CC[C@]12C)C(C)C was tested, and the -log(RatioIC50) was -1.43. Compound CN1C(=O)C=C[C@]2(C)[C@H]3CC[C@]4(C)[C@@H](C(=O)c5ccc[nH]5)CC[C@H]4[C@@H]3CC[C@@H]12 has a -log(RatioIC50) of -1.52. COC(=O)[C@@H](C)[C@H]1CC[C@H]2[C@@H]3CC[C@H]4NC(=O)C=C[C@]4(C)[C@H]3CC[C@]12C showed a -log(RatioIC50) of -1.48. Compound C[C@]12C=CC(=O)N[C@@H]1CC[C@@H]1[C@@H]2CC[C@]2(C)[C@@H](C(N)=O)CC[C@@H]12 has a -log(RatioIC50) of -1.92. For C[C@]12C=CC(=O)N[C@@H]1CC[C@@H]1[C@@H]2CC[C@@]2(C)[C@H]1CC[C@@]21CCCO1, the -log(RatioIC50) was -3. CC(C)CC(=O)[C@H]1CC[C@H]2[C@@H]3CC[C@H]4N(C)C(=O)C=C[C@]4(C)[C@H]3CC[C@]12C was tested, and the -log(RatioIC50) was -1.48. Compound CC(C)N(C(=O)[C@H]1CC[C@H]2[C@@H]3CC[C@H]4N(C)C(=O)C=C[C@]4(C)[C@H]3CC[C@]12C)C(C)C has a -log(RatioIC50) of -1. In the case of C[C@]12C=CC(=O)N[C@@H]1CC[C@@H]1[C@@H]2CC[C@]2(C)[C@@H](O)CC[C@@H]12, the -log(RatioIC50) is reported as -2. For CC(C)CC(=O)[C@H]1CC[C@H]2[C@@H]3CC[C@H]4NC(=O)C=C[C@]4(C)[C@H]3CC[C@]12C, the -log(RatioIC50) was -0.255. Work on CCNC(=O)[C@H]1CC[C@H]2[C@@H]3CC[C@H]4NC(=O)C=C[C@]4(C)[C@H]3CC[C@]12C yielded a -log(RatioIC50) of -1.18.
